Where two headings read alike, the source gives them in different places.
Experiments:
LF protease activity = LF protease activity (Bacillus anthracis, UniProt P15917); assay: biochemical
[1] = system: RAW 264.7 macrophages treated with LeTx (PA and LF)
[2] = system: RAW 264.7 macrophages treated with LeTx (PA and LF); assay: cells; conditions: Mus musculus, RAW264.7, read-out: IC50 Cell Viability
[3] = target: Anthrax Lethal Factor (LF) (Bacillus anthracis, UniProt P15917); assay: biochemical; format: binding
COX-1 = COX-1 (Homo sapiens, UniProt P23219); conditions: read-out: IC50 COX-1; cited from earlier work
COX-2 = COX-2 (Homo sapiens, UniProt P35354); conditions: read-out: IC50 COX-2; cited from earlier work
[4] = in vivo, cited from earlier work

Chain of LF protease activity (P15917 34-809 limits assumed): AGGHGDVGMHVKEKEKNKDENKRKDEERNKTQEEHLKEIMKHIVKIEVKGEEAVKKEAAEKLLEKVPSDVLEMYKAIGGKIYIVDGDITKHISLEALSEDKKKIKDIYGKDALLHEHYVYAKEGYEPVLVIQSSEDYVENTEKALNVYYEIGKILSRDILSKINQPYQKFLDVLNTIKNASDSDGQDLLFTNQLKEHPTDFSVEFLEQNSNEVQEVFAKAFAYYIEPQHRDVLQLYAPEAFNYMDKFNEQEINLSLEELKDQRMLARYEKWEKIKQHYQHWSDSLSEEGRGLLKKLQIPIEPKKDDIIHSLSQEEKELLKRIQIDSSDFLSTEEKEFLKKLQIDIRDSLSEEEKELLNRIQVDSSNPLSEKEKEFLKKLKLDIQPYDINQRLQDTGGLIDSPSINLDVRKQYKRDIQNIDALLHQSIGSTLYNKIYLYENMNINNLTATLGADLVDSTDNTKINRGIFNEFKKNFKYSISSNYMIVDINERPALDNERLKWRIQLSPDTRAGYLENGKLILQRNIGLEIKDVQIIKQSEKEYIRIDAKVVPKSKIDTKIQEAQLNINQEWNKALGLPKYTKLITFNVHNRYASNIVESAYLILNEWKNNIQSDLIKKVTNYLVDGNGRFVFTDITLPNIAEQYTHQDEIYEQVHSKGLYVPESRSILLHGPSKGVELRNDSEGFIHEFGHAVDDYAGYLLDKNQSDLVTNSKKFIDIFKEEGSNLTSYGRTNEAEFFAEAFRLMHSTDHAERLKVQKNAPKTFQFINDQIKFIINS
Chain of Anthrax Lethal Factor (LF) (P15917 34-809 limits assumed): as above
Chain of COX-1 (P23219 24-599): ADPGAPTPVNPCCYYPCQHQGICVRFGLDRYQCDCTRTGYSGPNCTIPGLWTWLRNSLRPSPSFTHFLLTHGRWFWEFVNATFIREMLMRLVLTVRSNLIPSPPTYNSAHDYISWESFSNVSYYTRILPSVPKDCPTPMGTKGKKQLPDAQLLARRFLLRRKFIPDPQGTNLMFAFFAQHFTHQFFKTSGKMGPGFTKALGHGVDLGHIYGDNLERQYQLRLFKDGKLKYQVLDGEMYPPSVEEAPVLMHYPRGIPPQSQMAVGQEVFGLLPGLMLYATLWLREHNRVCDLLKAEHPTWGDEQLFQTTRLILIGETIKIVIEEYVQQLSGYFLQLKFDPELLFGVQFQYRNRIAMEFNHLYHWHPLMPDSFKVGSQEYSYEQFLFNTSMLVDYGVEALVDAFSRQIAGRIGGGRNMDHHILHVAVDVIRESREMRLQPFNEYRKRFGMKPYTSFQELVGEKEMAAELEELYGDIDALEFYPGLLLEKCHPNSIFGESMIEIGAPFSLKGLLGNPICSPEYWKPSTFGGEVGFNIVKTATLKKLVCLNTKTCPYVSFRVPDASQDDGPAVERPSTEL
Chain of COX-2 (P35354 18-604): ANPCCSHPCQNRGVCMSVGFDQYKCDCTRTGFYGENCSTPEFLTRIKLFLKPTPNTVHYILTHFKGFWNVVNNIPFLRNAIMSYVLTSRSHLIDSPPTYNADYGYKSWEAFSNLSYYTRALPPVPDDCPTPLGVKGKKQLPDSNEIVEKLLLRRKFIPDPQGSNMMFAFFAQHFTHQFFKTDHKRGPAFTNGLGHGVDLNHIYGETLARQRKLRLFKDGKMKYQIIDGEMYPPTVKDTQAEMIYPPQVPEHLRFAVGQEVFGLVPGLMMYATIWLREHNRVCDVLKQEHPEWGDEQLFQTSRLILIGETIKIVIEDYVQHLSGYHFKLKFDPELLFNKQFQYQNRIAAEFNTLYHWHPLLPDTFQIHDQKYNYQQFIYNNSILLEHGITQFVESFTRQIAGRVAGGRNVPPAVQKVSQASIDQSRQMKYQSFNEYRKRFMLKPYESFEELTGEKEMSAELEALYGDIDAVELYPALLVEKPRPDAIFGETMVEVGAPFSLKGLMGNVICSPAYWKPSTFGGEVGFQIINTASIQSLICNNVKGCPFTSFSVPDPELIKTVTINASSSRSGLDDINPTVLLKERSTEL

COc1ccc2cc([C@H](C)C(=O)O)ccc2c1 [Naproxen, (S)-(+)-6-Methoxy-α-methyl-2-naphthaleneacetic acid]
inhibition of LF protease activity (in words) (LF protease activity): failed to inhibit LF
inhibition of LeTx cytotoxicity (in words) [1]: failed to inhibit LeTx

CSc1ccc(/C=C2/C(C)=C(CC(=O)O)c3cc(F)ccc32)cc1 [sulindac sulfide, Sulindac Sulfide]
IC50 (LF protease activity; IC50 Protease Activity): 19.1 µM
IC50 [2]: 20.4 µM

CC1=C(CC(=O)O)c2cc(F)ccc2/C1=C\c1ccc([S+](C)[O-])cc1 (stereo not shown) [Sulindac]
Kd [3]: 2.8 µM
IC50 (LF protease activity; IC50 Protease Activity): 173 µM
IC50 [2]: 31.7 µM
IC50 (COX-1): 41.3 µM
IC50 (COX-2): 25 µM
mean half-life ([4]; 150 mg): 7.8 h
maximum concentration in human blood plasma [4]: 5.71 ± 2.17 µg/mL

CC1=C(CC(=O)NCCCN=[N+]=[N-])c2cc(F)ccc2/C1=C\c1ccc([S+](C)[O-])cc1 (stereo not shown) [sulindac-N3]
IC50 (LF protease activity; IC50 Protease Activity): 420 µM
IC50 [2]: 90.1 µM

CC1=C(CC(=O)O)c2cc(F)ccc2/C1=C\c1ccc(S(C)(=O)=O)cc1 [sulindac sulfone, Sulindac Sulfone]
IC50 (LF protease activity; read-out: IC50 Protease Activity): 185 µM
IC50 ([1]; read-out: IC50 Cell Viability): 56.6 µM

CCCCc1ccc(C(=O)NCCCN=[N+]=[N-])nc1 [fusaric acid-N3]
IC50 (LF protease activity; IC50 (fluorogenic substrate assay)): 1100 µM
IC50 [2]: 164 µM

CCCCc1ccc(C(=O)NCCCn2cc(CNC(C)=O)nn2)nc1 [fusaric acid-bMR]
IC50 (LF protease activity; IC50 Protease Activity): 1.2 ± 0.36 µM
IC50 ([1]; mouse): 0.721 µM

CCCCc1ccc(C(=O)O)nc1 [Fusaric Acid]
Kd [3]: 4.5 µM
IC50 (LF protease activity; IC50 Protease Activity): 530 µM
IC50 [2]: 75.3 µM

— US20150087605A1 (priority 2013, published 2015)
